System: Adenosine Diphosphate (ADP)-Induced Platelet Aggregation
Experiment: Inhibitory Effect on Adenosine Diphosphate (ADP)-Induced Platelet Aggregation (turbidimetric method, platelet rich plasma)
Type: cell-based, Japanese White rabbit
Conditions: Oryctolagus cuniculus; rabbit platelet rich plasma; aggregation induced by 20 μM ADP; read-out: concentration at which the compound inhibited 50% of platelet aggregation (IC50)
Experimental: Platelet rich plasma (PRP) was prepared from Japanese White rabbit blood drawn from the carotid artery into a syringe containing 3.8% sodium citrate (1/10) volume, and centrifuged at 400×g for 10 min. Platelet aggregation in PRP was induced by 20 μM ADP and determined by the turbidimetric method using an aggregomater (Hema-Tracer: Niko Bioscience Co., Ltd., Japan).

IC50 [µM] | Structure (SMILES)
140 | O=C1CCc2c(ccc(N3CCC(O)CC3)c2Br)N1 [Compound 4, 5-Bromo-6-(4-hydroxypiperidino)-3,4-dihydrocarbostyril]
130 | Cc1cc2c(cc1N1CCC(O)CC1)CCC(=O)N2 [Compound 9, 6-(4-Hydroxypiperidino)-7-methyl-3,4-dihydrocarbostyril]
51 | O=C1CCc2cc(N3CCC(O)CC3)c(F)cc2N1 [Compound 10, 7-Fluoro-6-(4-hydroxypiperidino)-3,4-dihydrocarbostyril]
55 | O=C1CCc2c(ccc(N3CCC(O)CC3)c2[N+](=O)[O-])N1 [Compound 2, 6-(4-Hydroxypiperidino)-5-nitro-3,4-dihydrocarbostyril]
37 | O=C1CCc2cc(N3CCC(O)CC3)c([N+](=O)[O-])cc2N1 [Compound 1, 6-(4-Hydroxypiperidino)-7-nitro-3,4-dihydrocarbostyril]
18 | N#Cc1cc2c(cc1N1CCC(O)CC1)CCC(=O)N2 [Compound 7, 7-Cyano-6-(4-hydroxypiperidino)-3,4-dihydrocarbostyril]
26 | O=C1CCc2cc(N3CCC(O)CC3)c(Br)cc2N1 [Compound 3, 7-Bromo-6-(4-hydroxypiperidino)-3,4-dihydrocarbostyril]
290 | O=C1CCc2c(ccc(N3CCC(O)CC3)c2Cl)N1 [Compound 6, 5-Chloro-6-(4-hydroxypiperidino)-3,4-dihydrocarbostyril]
26 | O=C1CCc2cc(N3CCC(O)CC3)c(Cl)cc2N1 [Compound 5, 7-Chloro-6-(4-hydroxypiperidino)-3,4-dihydrocarbostyril]
39 | O=C1CCc2cc(N3CCC(O)CC3)c(C(F)(F)F)cc2N1 [Compound 12, 6-(4-Hydroxypiperidino)-7-trifluoromethyl-3,4-dihydrocarbostyril]
42 | COC(=O)c1cc2c(cc1N1CCC(O)CC1)CCC(=O)N2 [Compound 8, 6-(4-Hydroxypiperidino)-7-methoxycarbonyl-3,4-dihydrocarbostyril]
37 | CCC(=O)OC1CCN(c2cc3c(cc2[N+](=O)[O-])NC(=O)CC3)CC1 [Compound 11, 6-(4-Propionyloxypiperidino)-7-nitro-3,4-dihydrocabostyril]

From patent US5294718A, “Piperidino-3,4-dihydrocarbostyril compounds” (Kissei Pharmaceutical Co., Ltd., priority 1993, dated 1994)
